According to patent US10597388B2, “Pyridazinone herbicides” (FMC CORPORATION, priority 2014, dated 2020):

Legend:
Type in all cases: in vivo
[1] = test system: ducksalad (Heteranthera limosa); assay: Test B flooded paddy test; settings: 250 g ai/ha, Flood; visual rating on scale of 0 to 100 where 0 is no effect and 100 is complete control; 13 to 15 d after treatment
In short: (§1)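 Plants grown to the 2-leaf stage. At treatment, pots were flooded to 3 cm above the soil, compound was applied directly to the paddy water, and that depth was held throughout. After 13 to 15 d in the greenhouse, response was rated visually against controls on a 0 (no effect) to 100 (complete control) scale.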

[2] = test system: barnyardgrass (Echinochloa crus-galli); assay: Test B flooded paddy test; settings: 250 g ai/ha, Flood; visual rating on scale of 0 to 100 where 0 is no effect and 100 is complete control; 13 to 15 d after treatment
In short: as §1

[3] = test system: sedge, umbrella (small-flower umbrella sedge, Cyperus difformis); assay: Test B flooded paddy test; settings: 250 g ai/ha, Flood; visual rating on scale of 0 to 100 where 0 is no effect and 100 is complete control; 13 to 15 d after treatment
In short: as §1

rice (Oryza sativa) = assay: Test B flooded paddy test; settings: 250 g ai/ha, Flood; visual rating on scale of 0 to 100 where 0 is no effect and 100 is complete control; 13 to 15 d after treatment
In short: as §1

[4] = test system: blackgrass (Alopecurus myosuroides); assay: Test A greenhouse herbicide test, postemergence; settings: for Blackgrass plant response rating: 0 to 100 scale, 0 is no effect, 100 is complete control
In short: (§2)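 Visual injury score, 0 (no effect) to 100 (complete control), versus untreated controls roughly 10 d after postemergence spray; plants at one- to two-leaf stage, 2 to 10 cm tall, in loam soil and sand, kept in greenhouse.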

[5] = test system: galium (catchweed bedstraw, Galium aparine); assay: Test A greenhouse herbicide test, postemergence
In short: as §2

[6] = test system: pigweed (Amaranthus retroflexus); assay: Test A greenhouse herbicide test, pre- and postemergence
Description: (§3) Seeds of plant species selected from barnyardgrass (Echinochloa crus-galli), kochia (Kochia scoparia), ragweed (common ragweed, Ambrosia elatior), ryegrass, Italian (Italian ryegrass, Lolium multiflorum), crabgrass, large (large crabgrass, Digitaria sanguinalis), foxtail, giant (giant foxtail, Setaria faberii), momingglory (Ipomoea spp.), pigweed (Amaranthus retroflexus), velvetleaf (Abutilon theophrasti), wheat (Triticum aestivum), and corn (Zea mays) were planted into a blend of loam soil and sand and treated preemergence with a directed soil spray using test chemicals formulated in a non-phytotoxic solvent mixture which included a surfactant.
(§4) At the same time, plants selected from these crop and weed species and also blackgrass (Alopecurus myosuroides), and galium (catchweed bedstraw, Galium aparine) were planted in pots containing the same blend of loam soil and sand and treated with postemergence applications of test chemicals formulated in the same manner. Plants ranged in height from 2 to 10 cm and were in the one- to two-leaf stage for the postemergence treatment. Treated plants and untreated controls were maintained in a greenhouse for approximately 10 d, after which time all treated plants were compared to untreated controls and visually evaluated for injury. Plant response ratings, summarized in Table A, are based on a 0 to 100 scale where 0 is no effect and 100 is complete control. A dash (-) response means no test result.

corn (Zea mays) = assay: as above; settings: Postemergence
Description: as §3, §4

[7] = test system: wheat (Triticum aestivum); assay: as above; settings: Postemergence
Description: as §3, §4

[8] = test system: ryegrass, Italian (Italian ryegrass, Lolium multiflorum); assay: as above
Description: as §3, §4

[9] = test system: barnyardgrass (Echinochloa crus-galli); assay: as above
Description: as §3, §4

[10] = test system: ragweed (common ragweed, Ambrosia elatior); assay: as above
Description: as §3, §4

kochia (Kochia scoparia) = assay: as above
Description: as §3, §4

[11] = test system: foxtail, giant (giant foxtail, Setaria faberii); assay: as above
Description: as §3, §4

[12] = 125 g ai/ha, 0 to 100 scale where 0 is no effect and 100 is complete control
[13] = 500 g ai/ha, visual rating after approx. 10 d, 0 to 100 scale (0 no effect, 100 complete control)
[14] = Postemergence, 125 g ai/ha, 0 to 100 scale where 0 is no effect and 100 is complete control
[15] = Postemergence, 500 g ai/ha, visual rating after approx. 10 d, 0 to 100 scale (0 no effect, 100 complete control)
[16] = Preemergence, 125 g ai/ha, 0 to 100 scale where 0 is no effect and 100 is complete control
[17] = Preemergence, 500 g ai/ha, 0 to 100 scale where 0 is no effect and 100 is complete control
[18] = Postemergence, 500 g ai/ha, 0 to 100 scale, 0 is no effect, 100 is complete control

SMILES	Plant response rating, Ducksalad [1]	Plant response rating, Barnyardgrass [2]	Plant response rating, Sedge, Umbrella [3]	Plant response rating, Rice (rice (Oryza sativa))	Plant response rating, Blackgrass [4, 12]	Plant response rating, Galium [5, 12]	Plant response rating, Galium [5, 13]	Plant response rating, Pigweed [6, 14]	Plant response rating, Pigweed [6, 15]	Pigweed plant response rating [6, 16]	Plant response rating, Pigweed [6, 17]	Plant response rating, Corn (corn (Zea mays); [12])	Plant response rating, Corn (corn (Zea mays); [13])	Plant response rating, Wheat [7, 12]	Plant response rating, Wheat [7, 13]	Plant response rating, Ryegrass, Italian [8, 14]	Plant response rating, Ryegrass, Italian [8, 15]	Ryegrass, Italian plant response rating [8, 16]	Plant response rating, Ryegrass, Italian [8, 17]	Plant response rating, Barnyardgrass [9, 14]	other results
COC(=O)Oc1c(Cl)nn(C)c(=O)c1-c1c(C)sc2ccc(Cl)cc12 [Compound 101]	0	0	0	0	20	70	90	30	70	90	90	0	20	0	20	30	50	60	100	0	Blackgrass plant response rating ([4]; 500 g ai/ha): 40; Barnyardgrass plant response rating [9, 18]: 30; Barnyardgrass plant response rating [9, 16]: 0; Plant response rating, Barnyardgrass [9, 17]: 30; Plant response rating, Ragweed [10, 14]: 60; Plant response rating, Ragweed [10, 15]: 80; Ragweed plant response rating [10, 16]: 40; Plant response rating, Ragweed [10, 17]: 40; Plant response rating, Kochia (kochia (Kochia scoparia); [14]): 20; Plant response rating, Kochia (kochia (Kochia scoparia); [15]): 30; Kochia plant response rating (kochia (Kochia scoparia); [16]): 0; Plant response rating, Kochia (kochia (Kochia scoparia); [17]): 40; Plant response rating, Foxtail, Giant [11, 14]: 30; Plant response rating, Foxtail, Giant [11, 15]: 50; Foxtail, Giant plant response rating [11, 16]: 30; Plant response rating, Foxtail, Giant [11, 17]: 60
CCc1ccc2ccc(C)cc2c1-c1c(O)c(C)nn(C)c1=O [Compound 103]	0	30	50	0	70	100	100	90	100	100	100	20	60	0	20	100	100	90	100	40	Blackgrass plant response rating ([4]; 500 g ai/ha): 90; Barnyardgrass plant response rating [9, 18]: 90; Barnyardgrass plant response rating [9, 16]: 40; Plant response rating, Barnyardgrass [9, 17]: 90; Plant response rating, Ragweed [10, 14]: 100; Plant response rating, Ragweed [10, 15]: 100; Ragweed plant response rating [10, 16]: 90; Plant response rating, Ragweed [10, 17]: 100; Plant response rating, Kochia (kochia (Kochia scoparia); [14]): 50; Plant response rating, Kochia (kochia (Kochia scoparia); [15]): 90; Kochia plant response rating (kochia (Kochia scoparia); [16]): 20; Plant response rating, Kochia (kochia (Kochia scoparia); [17]): 40; Plant response rating, Foxtail, Giant [11, 14]: 90; Plant response rating, Foxtail, Giant [11, 15]: 90; Foxtail, Giant plant response rating [11, 16]: 80; Plant response rating, Foxtail, Giant [11, 17]: 100
CCc1nn(C)c(=O)c(-c2c(C)oc3ccccc23)c1O [Compound 117]	0	0	0	0	0	0	0	0	20	0	30	0	0	0	0	0	0	0	0	0	Plant response rating, Blackgrass [4, 13]: 0; Plant response rating, Barnyardgrass [9, 15]: 40; Barnyardgrass plant response rating [9, 16]: 0; Plant response rating, Barnyardgrass [9, 17]: 50; Plant response rating, Ragweed [10, 14]: 0; Plant response rating, Ragweed [10, 15]: 0; Ragweed plant response rating [10, 16]: 0; Plant response rating, Ragweed [10, 17]: 0; Plant response rating, Kochia (kochia (Kochia scoparia); [14]): 0; Plant response rating, Kochia (kochia (Kochia scoparia); [15]): 10; Kochia plant response rating (kochia (Kochia scoparia); [16]): 0; Plant response rating, Kochia (kochia (Kochia scoparia); [17]): 0; Plant response rating, Foxtail, Giant [11, 14]: 0; Plant response rating, Foxtail, Giant [11, 15]: 20; Foxtail, Giant plant response rating [11, 16]: 0; Plant response rating, Foxtail, Giant [11, 17]: 30
CC(=O)Oc1ccc2cccc(-c3c(OC(C)=O)c(C)nn(C)c3=O)c2c1 [Compound 124]	0	0	0	0	0	0	30	0	0	0	0	0	0	0	0	0	0	0	30	20	Plant response rating, Blackgrass [4, 13]: 0; Plant response rating, Barnyardgrass [9, 15]: 30; Barnyardgrass plant response rating [9, 16]: 0; Plant response rating, Barnyardgrass [9, 17]: 0; Plant response rating, Ragweed [10, 14]: 0; Plant response rating, Ragweed [10, 15]: 0; Ragweed plant response rating [10, 16]: 0; Plant response rating, Ragweed [10, 17]: 0; Plant response rating, Kochia (kochia (Kochia scoparia); [14]): 0; Plant response rating, Kochia (kochia (Kochia scoparia); [15]): 0; Kochia plant response rating (kochia (Kochia scoparia); [16]): 0; Plant response rating, Kochia (kochia (Kochia scoparia); [17]): 20; Plant response rating, Foxtail, Giant [11, 14]: 0; Plant response rating, Foxtail, Giant [11, 15]: 0; Foxtail, Giant plant response rating [11, 16]: 0; Plant response rating, Foxtail, Giant [11, 17]: 0
COc1nn(C)c(=O)c(-c2c(C)sc3ccc(Cl)cc23)c1OS(C)(=O)=O [Compound 135]	0	0	0	0	0	60	90	0	20	30	70	0	20	0	0	40	70	20	60	0	Plant response rating, Blackgrass [4, 13]: 30; Plant response rating, Barnyardgrass [9, 15]: 0; Barnyardgrass plant response rating [9, 16]: 0; Plant response rating, Barnyardgrass [9, 17]: 0; Plant response rating, Ragweed [10, 14]: 30; Plant response rating, Ragweed [10, 15]: 60; Ragweed plant response rating [10, 16]: 30; Plant response rating, Ragweed [10, 17]: 60; Plant response rating, Kochia (kochia (Kochia scoparia); [14]): 0; Plant response rating, Kochia (kochia (Kochia scoparia); [15]): 0; Kochia plant response rating (kochia (Kochia scoparia); [16]): 0; Plant response rating, Kochia (kochia (Kochia scoparia); [17]): 0; Plant response rating, Foxtail, Giant [11, 14]: 0; Plant response rating, Foxtail, Giant [11, 15]: 0; Foxtail, Giant plant response rating [11, 16]: 20; Plant response rating, Foxtail, Giant [11, 17]: 30
